Reference: patent publication EP0133407A1, “Acetylene derivatives having an enzyme-inhibiting activity, their preparation and their use as medicines” (Etablissement Public dit: CENTRE NATIONAL DE LA RECHERCHE …, priority 1983, dated 1985)

How the values were obtained:
[1] = test system: Cellules d'embryon de poulet; test: Transformation of chick embryo cells induced by Rous sarcoma virus; format: cell-based
Description: (§1) Le produit est efficace contre la transformation des cellules d'embryon de poulet induite par le virus du sarcome de ROUS.

[2] = test system: Cellules HeLa humaines; test: Cell growth inhibition, transformed cells: HeLa; format: cell-based
Description: (§2) Les tableaux 1 et 2 ci-après donnent le résultat de ces tests qui portent sur trois types de cellules transformées. Les chiffres indiqués représentent le pourcentage d'inhibition de la croissance de cellules traitées par des doses de plus en plus fortes de composé 6a (chlorhydrate) par rapport à celles des mêmes cellules non traitées.

[3] = test system: cellules de mélanomes humains M1 DOR; test: Complementary in vitro test, dead cells after four days of growth: melanoma M1 DOR; format: cell-based; conditions: untreated 24, 5760 min
[4] = test system: Cellules d'embryon de poulet; test: Cell growth inhibition, normal cells: chick embryo cells; format: cell-based
[5] = test system: carcinome de Lewis; test: In vivo tumour growth: Lewis carcinoma in mice; set-up: species or system souris swiss; conditions: 3.10^5 Lewis carcinoma cells; daily 6 mg/kg or 12 mg/kg
Description: (§3) Deux types de tumeurs ont été utilisés : • - un carcinome de Lewis (sur souris swiss), • - un mélanome DAU d'origine humaine (sur souris nude).
Le test est effectué sur des souris auxquelles 3.10^5 cellules de carcinome de Lewis ont été inoculées.

[6] = test system: mélanome DAU d'origine humaine; test: In vivo tumour growth: human melanoma DAU in nude mice; set-up: species or system souris nude; souris traitées présentant un retard dans le développement tumoral: unit not given here; conditions: 5.10^5 melanoma DAU cells; 2 x 15 mg/kg on day 1, 2 x 6 mg/kg days 2 to 7; versus untreated controls
Procedure: as §3
Les souris ont reçu une injection de 5.10^5 cellules de mélanome DAU Celles traitées ont reçu : • - 2 x 15 mg/kg le premier jour, • - 2 x 6 mg/kg du deuxième au septième jour.

[7] = test system: cellules NRK (normales); test: Growth inhibition in tissue culture, normal NRK cells; format: cell-based; conditions: 6a solutions made by the second method (example 2) compared with product of example 1
[8] = test system: clone FAZA 967 de l'hépatome de rat REUBER H 35; test: Toxicity on hepatoma clone FAZA 967 (LDH, GOT, GPT assayed in the medium); format: cell-based
[9] = test system: Cellules de la membrane amniotique humaine; test: Cell growth inhibition / toxicity, normal cells: human amniotic membrane cells; format: cell-based
[10] = Stability of solutions; format: physicochemical; conditions: concentrated solutions
Description: Il convient de préciser que les solutions concentrées du produit 6a sont instables. Le produit est conservé sous forme de solutions diluées, par exemple le chlorhydrate peut être conservé en solution aqueuse diluée.

[11] = test system: virus du sarcome de ROUS; test: Replication of Rous sarcoma virus; format: cell-based
Description: as §1

[12] = test system: cellules de leucémie L1210; test: Survival of mice inoculated with leukaemia L1210 cells; format: in vivo, souris; conditions: 3.10^5 L1210 cells; 6 mg/kg for 7 days
Description: Une étude a aussi été faite sur des souris auxquelles avaient été inoculées 3.10^5 cellules de leucémie L1210.

[13] = test system: cellules de mélanomes humains M3 DAU; test: Complementary in vitro test, dead cells after four days of growth: melanoma M3 DAU; format: cell-based; conditions: untreated 6, 5760 min
Description: as §2

[14] = Acute toxicity (DL50) in mice; set-up: species or system souris swiss; conditions: mouse, in vivo, two independent measurements
Procedure: (§4) Les tests dont les résultats sont donnés ci-dessous ont été réalisés avec des solutions du composé 6a (sous forme de chlorhydrate). Dans ces tests, on a étudié l'activité vis à vis de la croissance tumorale (carcinome et mélanome) et la survie de souris swiss auxquelles ont été injectées des quantités variables de cellules d'ascites de Krebs.
Toxicité aigüe : La DL50 du composé 6a (chlorhydrate) déterminée sur ces souris par deux mesures indépendantes est de 60 mg/kg.

[15] = test system: cellules d'ascites de KREBS (carcinome); test: Survival of mice injected with Krebs ascites cells; format: in vivo, souris swiss; set-up: taux de survie: unit not given here
Description: as §4
Les résultats des tests ont été obtenus principalement à partir de souris' auxquelles ont été injectées des cellules d'ascites de KREBS (carcinome) dont l'origine a été décrite par G. KLEIN et E. KLEIN Cancer Research 1951-11-466.

[16] = test system: Fibroblastes humains MRC 5; test: Cell growth inhibition, normal cells: MRC 5 fibroblasts; format: cell-based
[17] = test system: Hepatomes de rat; test: Cell growth inhibition, transformed cells: rat hepatomas; format: cell-based
Description: as §2

[18] = test system: NRK LA31 à 33°; test: Cell growth inhibition, transformed cells: NRK LA31 at 33°; format: cell-based, rat
Description: as §2

[19] = test system: Cellules de rein de rat NRK B 77; test: Cell growth inhibition, transformed cells: NRK B 77; format: cell-based
Description: as §2

[20] = test system: lignées de lymphomes de souris; test: In vivo activity against mouse lymphoma lines; conditions: certain mouse lymphoma lines
[21] = concentration 1,5.10^-3 (unit not given)
[22] = concentration 2.10^-3 (unit not given)
[23] = concentration 3.10^-3 (unit not given)
[24] = concentration 4.10^-3 (unit not given)
[25] = concentration 5.10^-3 (unit not given)

Compound: CC(C)(N)C#CC=O [composé 6a]
- efficacité contre la transformation des cellules induite par le virus du sarcome de ROUS [1]: efficace
- % d'inhibition de la croissance cellulaire ([2]; 1.10^-4 M): 18%
- % d'inhibition de la croissance cellulaire ([2]; 2.10^-4 M): 36%
- % d'inhibition de la croissance cellulaire ([2]; 4.10^-4 M): 78%
- % d'inhibition de la croissance cellulaire ([2]; 5.10^-5 M): 0%
- % d'inhibition de la croissance cellulaire ([2]; 6.10^-4 M): 91%
- % de cellules mortes après quatre jours de croissance [3, 21]: 21%
- % de cellules mortes après quatre jours de croissance [3, 22]: 28%
- % de cellules mortes après quatre jours de croissance [3, 23]: 24%
- % de cellules mortes après quatre jours de croissance [3, 24]: 26%
- % de cellules mortes après quatre jours de croissance [3, 25]: 23%
- % d'inhibition de la croissance cellulaire ([4]; 1.10^-4 M): 0%
- % d'inhibition de la croissance cellulaire ([4]; 2.10^-4 M): 0%
- % d'inhibition de la croissance cellulaire ([4]; 4.10^-4 M): 10%
- % d'inhibition de la croissance cellulaire ([4]; 5.10^-5 M): 0%
- % d'inhibition de la croissance cellulaire ([4]; 6.10^-4 M): 12%
- croissance tumorale [5]: net ralentissement de la croissance tumorale
- retard dans le développement tumoral [6]: dizaine
- souris traitées présentant un retard dans le développement tumoral [6]: 60
- inhibition de la croissance en culture de tissus [7]: activité en tous points comparable à celle observée avec le produit de l'exemple 1
- toxicité du produit, estimée par dosage dans le milieu des enzymes LDH, GOT et GPT [8]: aucune toxicité
- % d'inhibition de la croissance cellulaire ([9]; 6.10^-4 M): 0%
- effet sur la croissance et sur la morphologie des cellules ([9]; concentrations de 5.10 et de 10^-4 mole-litre ^-1): aucun effet
- stabilité des solutions [10]: instables
- réplication du virus [11]: n'est pas inhibée
- survie [12]: le même effet que dans le cas du carcinome
- % de cellules mortes après quatre jours de croissance [13, 21]: 24%
- % de cellules mortes après quatre jours de croissance [13, 22]: 47%
- % de cellules mortes après quatre jours de croissance [13, 23]: 92%
- % de cellules mortes après quatre jours de croissance [13, 24]: 98%
- % de cellules mortes après quatre jours de croissance [13, 25]: 98%
- LD50 [14]: 60 mg/kg
- survie ([15]; 5.10^5 cells inoculated, 6 mg/kg for 7 days): provoque un retard dans la mort mais n'augmente pas le taux de survie
- taux de survie ([15]; 5.10^5 cells inoculated, 6 mg/kg, treatment of 21 days): ≤ 90
- survie ([15]; 5.10^5 cells, 2 x 15 mg/kg on day 1 then 2 x 6 mg/kg the 6 following days, compared with 21-day treatment): Le même effet
- survie ([15]; 10 cellules (so in the source), 2 x 15 mg/kg on day 1 then 2 x 6 mg/kg the 6 following days): encore suffisants
- survie ([15]; inoculation of 5.10^6 cells, 2 x 15 mg/kg on day 1 then 2 x 6 mg/kg the 6 following days): efficacité est moindre
- survie ([15]; inoculation of 10 cellules (so in the source), 6 mg/kg daily for 7 days): guérison complète jusque 6 mois
- % d'inhibition de la croissance cellulaire ([16]; 1.10^-4 M): 0%
- % d'inhibition de la croissance cellulaire ([16]; 2.10^-4 M): 0%
- % d'inhibition de la croissance cellulaire ([16]; 4.10^-4 M): 0%
- % d'inhibition de la croissance cellulaire ([16]; 5.10^-5 M): 0%
- % d'inhibition de la croissance cellulaire ([16]; 6.10^-4 M): 18%
- % d'inhibition de la croissance cellulaire ([17]; 2.10^-4 M): 50%
- % d'inhibition de la croissance cellulaire ([17]; 6.10^-4 M): 60%
- % d'inhibition de la croissance cellulaire ([18]; 1.10^-4 M): 0%
- % d'inhibition de la croissance cellulaire ([18]; 2.10^-4 M): 11%
- % d'inhibition de la croissance cellulaire ([18]; 4.10^-4 M): 63%
- % d'inhibition de la croissance cellulaire ([18]; 5.10^-5 M): 0%
- % d'inhibition de la croissance cellulaire ([18]; 6.10^-4 M): Mort
- % d'inhibition de la croissance cellulaire ([19]; 1.10^-4 M): 16%
- % d'inhibition de la croissance cellulaire ([19]; 2.10^-4 M): 31%
- % d'inhibition de la croissance cellulaire ([19]; 4.10^-4 M): 57%
- % d'inhibition de la croissance cellulaire ([19]; 5.10^-5 M): 0%
- inhibition de la croissance en culture de tissus ([19]; 6a solutions made by the second method (example 2) compared with product of example 1, NRK-B77 (transformées)): activité en tous points comparable à celle observée avec le produit de l'exemple 1
- % d'inhibition de la croissance cellulaire ([19]; 6.10^-4 M): 79%

Compound: CCOC(C#CC(C)(C)N)OCC [composé 9a]
- activité in vivo [20]: actif sélectivement
